Entries after “also recorded” stand apart in the source; their conditions may differ. Read-outs that look alike come from different tables or passages of the source.
Experiments:
[1] = cited from earlier work; for dose absorbed: human
UGT1A1 = target: T1, UGT1A1 (Homo sapiens, UniProt P22309); settings: cited from earlier work
T1 sequence (P22309 26-533): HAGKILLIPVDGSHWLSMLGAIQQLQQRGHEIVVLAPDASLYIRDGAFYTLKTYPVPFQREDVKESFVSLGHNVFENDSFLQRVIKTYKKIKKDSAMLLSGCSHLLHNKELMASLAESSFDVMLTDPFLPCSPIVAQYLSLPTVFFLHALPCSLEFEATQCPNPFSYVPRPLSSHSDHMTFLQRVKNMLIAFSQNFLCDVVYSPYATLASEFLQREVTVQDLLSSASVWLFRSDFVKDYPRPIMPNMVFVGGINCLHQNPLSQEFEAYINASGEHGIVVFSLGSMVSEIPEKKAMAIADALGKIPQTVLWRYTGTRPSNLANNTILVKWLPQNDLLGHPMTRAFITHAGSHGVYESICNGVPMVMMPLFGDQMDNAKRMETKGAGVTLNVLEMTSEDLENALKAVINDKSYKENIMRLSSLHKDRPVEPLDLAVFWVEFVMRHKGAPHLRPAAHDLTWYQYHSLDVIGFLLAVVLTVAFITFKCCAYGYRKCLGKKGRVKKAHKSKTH

[2] = humans; cited from earlier work
[3] = in vivo; cited from earlier work
CYP1A2 and CYP2C19 = settings: metabolic pathway contribution; cited from earlier work
P-gp and BCRP = settings: in vitro; cited from earlier work
CYP3A4 = CYP3A4 (Homo sapiens, UniProt P08684); settings: cited from earlier work
Chain of CYP3A4 (P08684 whole entry): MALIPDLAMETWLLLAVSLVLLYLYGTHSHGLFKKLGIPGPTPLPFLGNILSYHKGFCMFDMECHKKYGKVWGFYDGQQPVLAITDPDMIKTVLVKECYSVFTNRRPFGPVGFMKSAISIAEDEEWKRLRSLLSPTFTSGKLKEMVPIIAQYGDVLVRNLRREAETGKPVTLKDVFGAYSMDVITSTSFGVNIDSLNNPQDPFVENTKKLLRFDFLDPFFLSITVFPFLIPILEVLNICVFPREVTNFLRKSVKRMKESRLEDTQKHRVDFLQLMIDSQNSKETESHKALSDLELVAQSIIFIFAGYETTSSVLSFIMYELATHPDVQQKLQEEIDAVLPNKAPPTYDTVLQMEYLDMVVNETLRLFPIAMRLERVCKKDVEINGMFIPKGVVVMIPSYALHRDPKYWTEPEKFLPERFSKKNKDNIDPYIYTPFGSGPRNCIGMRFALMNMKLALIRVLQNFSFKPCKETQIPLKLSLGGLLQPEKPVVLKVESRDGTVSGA

[4] = system: CYP1A2, CYP2B6, CYP2C8, CYP2C9, CYP3A4 and UGT1A1; settings: cited from earlier work
[5] = system: CYP3A4, CYP2C19, and CYP2D6; settings: in vitro, cited from earlier work
[6] = system: P-gp, BCRP, OATP1B1, OATP1B3, OAT1, OAT3 and OCT2; settings: in vitro, cited from earlier work
CYP3A = settings: concomitant administration; cited from earlier work
[7] = system: CYP2B6, CYP2C9 and CYP3A4; settings: human primary hepatocytes; cited from earlier work
BRAF ΔNVTAP deletion = settings: patients with ΔNVTAP deletion, clinical case reports; cited from earlier work
[8] = target: BRAF N486_P490del (delta-NVTAP) (Homo sapiens, UniProt P15056, DEL486-490); settings: experimentally, PMID: 26996308; cited from earlier work
Chain of BRAF N486_P490del (delta-NVTAP) (P15056 with tags, fused parts or gaps DEL486-490): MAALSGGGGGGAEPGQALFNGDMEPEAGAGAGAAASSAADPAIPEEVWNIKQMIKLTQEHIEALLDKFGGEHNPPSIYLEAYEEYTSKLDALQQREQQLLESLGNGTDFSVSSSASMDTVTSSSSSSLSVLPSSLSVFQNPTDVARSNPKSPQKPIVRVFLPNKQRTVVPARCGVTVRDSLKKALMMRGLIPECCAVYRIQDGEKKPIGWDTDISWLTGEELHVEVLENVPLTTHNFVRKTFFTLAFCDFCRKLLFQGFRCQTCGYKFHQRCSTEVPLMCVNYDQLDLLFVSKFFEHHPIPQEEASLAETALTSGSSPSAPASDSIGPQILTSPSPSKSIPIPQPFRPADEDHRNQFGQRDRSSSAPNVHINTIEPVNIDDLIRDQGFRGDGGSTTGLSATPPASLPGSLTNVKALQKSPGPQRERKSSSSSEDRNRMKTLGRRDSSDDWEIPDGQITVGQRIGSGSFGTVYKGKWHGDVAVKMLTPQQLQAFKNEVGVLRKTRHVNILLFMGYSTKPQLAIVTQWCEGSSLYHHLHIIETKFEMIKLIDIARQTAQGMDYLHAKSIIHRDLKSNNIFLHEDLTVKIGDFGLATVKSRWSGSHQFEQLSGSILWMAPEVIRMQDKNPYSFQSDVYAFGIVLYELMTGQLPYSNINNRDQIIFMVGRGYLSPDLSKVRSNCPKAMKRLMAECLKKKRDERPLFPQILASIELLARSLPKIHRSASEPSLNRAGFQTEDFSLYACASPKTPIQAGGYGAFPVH

[9] = system: BRAF-mutated pancreatic cancer; assay: Response and progression-free survival on BRAF/MEK/ERK-directed therapy, retrospective clinical case series; format: in vivo, human; settings: patients with fusion abnormalities, single agent trametinib
Description: Each horizontal bar represents the time on therapy without disease progression (i.e. progression-free survival). […] Bars capped with arrows indicate lines of therapy that were continuing as of the last available progress note (censored event).
Individual patient charts were retrospectively reviewed, and clinical information was extracted.
Demographic, clinical descriptors, and outcomes data were collected under institution-specific IRB-approved protocols for each individual site. The data from each site was de-identified before being shared in a HIPAA-compliant database.
Demographic data, date of diagnosis, staging information, treatment history, and response to therapy were collected from all participating sites. Overall survival (OS) was calculated from the time of the patient's diagnosis of advanced PC (i.e. the date of recurrence following surgical resection or the date of initial diagnosis in the context of metastatic or unresectable disease) until death (survival event) or last follow-up (censored event). […] Progression-free survival (PFS) was calculated from the time of initiation of a therapy until discontinuation due to disease progression (survival event), cessation due to tolerability issues (censored event), or the last follow-up (censored event).
All survival analysis methods were implemented in an R/Bioconductor programming environment. […]

Compound: Cn1cnc2c(F)c(Nc3ccc(Br)cc3F)c(C(=O)NOCCO)cc21 [Binimetinib]
- dose absorbed [1]: approximately 50%
- accumulation ([1]; in vivo): approximately 1.5 fold
- estimated renal clearance of unchanged drug ([1]; in vivo): 6.3 % of total dose
- excretion of unchanged drug in feces ([1]; in vivo): 31.7%
- excretion of unchanged drug in urine ([1]; in vivo): 18.4%
- time to steady state concentrations ([1]; in vivo): ≤ 15 days
- primary route of metabolism (UGT1A1; in vitro): primarily metabolized by glucuronidation through UGT1A1
- glucuronidation via UGT1A1 (UGT1A1; metabolic pathway contribution): up to 61.2%
- blood-to-plasma concentration ratio [2]: 0.718
- bound to plasma proteins [2]: 97.2%
- known potential toxicities, Very Common (≥10%) [3]: diarrhea, nausea, vomiting, fatigue, peripheral edema, increased AST, increased blood creatine phosphokinase, dermatitis acneiform, dry skin, pruritus, rash, decreased ejection fraction
- N-dealkylation via CYP1A2 and CYP2C19 (CYP1A2 and CYP2C19): up to 17.8%
- transporter substrate (P-gp and BCRP): substrate of P-gp and BCRP; also recorded: substrate for P-gp and BCRP

Compound: COC(=O)N[C@@H](C)CNc1nccc(-c2cn(C(C)C)nc2-c2cc(Cl)cc(NS(C)(=O)=O)c2F)n1 [Encorafenib]
- dose absorbed [1]: At least 86%
- excretion, feces ([1]; in vivo): 39%
- excretion, urine ([1]; in vivo): 47.2%
- time-dependent enzyme inhibition (CYP3A4): time-dependent inhibitor of CYP3A4
- reversible enzyme inhibition [4]: reversible inhibitor of CYP1A2, CYP2B6, CYP2C8, CYP2C9, CYP3A4 and UGT1A1
- metabolising enzymes and pathway [5]: metabolized by CYP3A4 and to a lesser extent by CYP2C19; also recorded: N-dealkylation is the primary metabolic pathway; CYP3A4 (primary), CYP2C19, and CYP2D6 (minor) contribute to total oxidative clearance in human liver microsomes
- metabolising enzymes and pathway ([5]; listed as encorafenib): mainly metabolized by CYP3A
- transporter inhibition [6]: potent inhibitor of the renal transporters, OAT1, OAT3 and OCT2, and the hepatic transporters OATP1B1 and OATP1B3
- transporter inhibition ([6]; listed as encorafenib): can potentially inhibit the transporters P-gp, BCRP, OATP1B1, OATP1B3, OAT1, OAT3 and OCT2 at clinical concentrations
- transporter substrate (P-gp and BCRP): substrate of the transporter P-gp
- effect of strong or moderate CYP3A inhibitors on exposure (CYP3A): may increase encorafenib plasma concentration
- enzyme induction [7]: induced CYP2B6, CYP2C9 and CYP3A4

Compound: CC(C)(C)c1nc(-c2cccc(NS(=O)(=O)c3c(F)cccc3F)c2F)c(-c2ccnc(N)n2)s1 [dabrafenib]
- clinical activity (BRAF ΔNVTAP deletion): significant activity
- Implications for BRAF Inhibitors: dabrafenib sensitivity [8]: sensitive;

Compound: CC(=O)Nc1cccc(-n2c(=O)n(C3CC3)c(=O)c3c(Nc4ccc(I)cc4F)n(C)c(=O)c(C)c32)c1 [trametinib]
- patients having disease control [9]: 4/6

From patent publication US20230060581A1, “METHOD OF TREATING PANCREATIC CANCER” (CEDARS-SINAI MEDICAL CENTER, priority 2020, published 2023)
